Data reported in patent US20050209288A1, “Compositions comprising (S)-amlodipine malate and an angiotensin receptor blocker and methods of their use” (priority 2004, published 2005).

Key:
Assay type in all cases: in vivo, rat
rats [1] = assay: Phase III: dose response to (S)-amlodipine malate in absence and presence of an ARB (co-administration); conditions: for dose response curve of ARB plus (S)-amlodipine malate relative to (S)-amlodipine malate alone: ARB at its ED30 dose; for Potential Dosage Adjustment (%) of (S)-amlodipine malate (adjustment factor): co-administration with the named ARB, relative to ED50 92 μg/kg alone
Experimental: (§1) (S)-amlodipine malate and seven ARBs (candasartan, eprosartan, irbesartan, losartan, olmesartan, telmisartan and valsartan) were evaluated. The study was conducted in three parts. Phase I evaluated the time-course of the hypotensive actions of all eight agents ([S]-amlodipine and the seven ARBs). In Phase II, the dose-responsive effects of [S]-amlodipine malate and the seven ARBs were evaluated individually. From this phase of the study, ED30 and ED50 doses of each of the seven ARBs were identified, defined as the dose that produced 30 or 50 percent of the hypotensive effect produced by a rapid i.v. injection (30 μg/kg) of sodium nitroprusside (NTP), a short-acting vasodilator. In Phase III, the dose response to [S]-amlodipine was evaluated in the presence and absence of the ED30 and ED50 dose of each of the seven ARBs, with the objective of comparing the extent to which each ARB, at its ED30 or ED50, shifted the dose-response curve of [S]-amlodipine to the left and thus, lowering the apparent ED50 of the calcium channel blocker.
(§2) Animals were anesthetized with thiobutabarbital sodium (Inactin®, 150 mg/kg, delivered i.p.), tracheotomized and placed on a thermostatically controlled heating pad (37-38° C.). The jugular vein and the carotid artery were cannulated with PE-50 tubing for drug administration and recording of cardiovascular parameters, respectively. Blood pressure was recorded from the carotid artery by means of a pressure transducer and heart rate was derived electronically from the blood pressure signal. The signal output derived electronically from the arterial pressure was analyzed with a digital computer. The software IOX-16 continuously recorded the data every 5 sec during the entire procedure for each rat. Raw arterial pressure (in mmHg) and heart rate (beats per min), as well as changes in these two parameters relative to baseline or pre-drug levels (for doses other than initial dose), both in raw units (mm Hg or beats per min [bpm]) and as percentage change from baseline were captured and analyzed. The animals were allowed to equilibrate for 15-20 min before any treatment.
(§3) Doses are expressed in terms of free active substance. Each treatment was administered in a volume of 1 mL/kg by slow (over 20-30 seconds) i.v. bolus for all test articles, in all three phases.
(§4) The data were reported as mean ±S.E.M. (standard error of the mean) from 3-5 rats per group. Raw arterial pressure (in mmHg) and heart rate (beats per min), as well as changes in these two parameters relative to baseline or pre-drug levels (for doses other than initial dose), both in raw units (mmHg or beats per min [bpm]) and as percentage change from baseline, were captured and analyzed.
(§5) ED30 and ED50 for each drug were defined as the dose causing a decline in arterial pressure corresponding to 30% and to 50%, respectively, of the maximal drop in blood pressure produced by fast bolus i.v. injection (30 μg/kg) of sodium nitroprusside.
Dose-response curves with (S)-amlodipine malate in the absence and presence of each of the seven ARBs at its ED30 are shown in FIGS. 1A and 1B. The data shown in the figures are from experiments in which ED30 doses of each of the ARBs was combined with (S)-amlodipine malate. These were chosen because ED30 doses were obtainable by direct interpolation of dose response curves from Phase II. For several of the ARBs, doses corresponding to ED50 were obtained from extrapolation of their dose response curves.

rats [2] = assay: Phase II: dose-response of hypotensive effect, ED30/ED50 relative to sodium nitroprusside
Experimental: as §1, §2, §3, §4, §5
In this phase, the hypotensive response to sodium nitroprusside (NTP, 30 μg/kg, i.v. bolus), which was injected once at the end of the equilibration period, was used as a comparator and ED30 and ED50 doses were estimated as the percentage of the maximum NTP effect.

rats [3] = conditions: anesthetized rats, 100 μg/kg i.v.
Experimental: as §1
as §2, with “The animals were allowed to equilibrate for 15-20 min before any treatment.” left out

[4] = i.v., anesthetized rats, from dose-response curve

Row | Structure (SMILES) | dose response curve of ARB plus (S)-amlodipine malate relative to (S)-amlodipine malate alone (rats [1]) | Potential Dosage Adjustment (%) of (S)-amlodipine malate (adjustment factor) (rats [1]) | ED30 (dose causing 30% of the maximal drop in blood pressure produced by sodium nitroprusside) (rats [2]; [4]) | further results
1 | CCCCC(=O)N(Cc1ccc(-c2ccccc2-c2nnn[nH]2)cc1)[C@H](C(=O)O)C(C)C [Valsartan, N-(1-oxopentyl)-N-[[2′-(1H-tetrazol-5-yl)[1,1′-biphenyl]-4-yl]methyl]-L-valine] | greatest leftward shift | 32% | 0.229 mg/kg | time to maximum hypotensive effect post-injection (rats [3]): five
2 | CCOC(=O)C1=C(COCCN)NC(C)=C(C(=O)OC)[C@@H]1c1ccccc1Cl.O=C(O)C[C@H](O)C(=O)O [(S)-amlodipine malate] | – | – | 0.056 mg/kg | ED50 of (S)-amlodipine malate in the absence of an ARB (rats [1]; i.v., anesthetized rats, Phase III): 0.092 mg/kg; ED50 (dose causing 50% of the maximal drop in blood pressure produced by sodium nitroprusside), estimated (rats [2]; [4]): 0.11 mg/kg; maximum decrease in blood pressure (rats [3]): 14-17 mmHg; time to maximum hypotensive effect post-injection (rats [3]): 35 to 55 min
3 | CCCCc1ncc(/C=C(\Cc2cccs2)C(=O)O)n1Cc1ccc(C(=O)O)cc1 [Eprosartan, (E)-α-[[2-butyl-1-[(4-carboxyphenyl)methyl]-1H-imidazol-5-yl]methylene]-2-thiophenepropanoic acid] | – | 24% | – | –
4 | CCCCc1nc(Cl)c(CO)n1Cc1ccc(-c2ccccc2-c2nnn[nH]2)cc1 [Losartan, 2-butyl-4-chloro-1-[[2′-(1H-tetrazol-5-yl)[1,1′-biphenyl]-4-yl]methyl]-1H-imidazole-5-methanol] | – | 15% | – | –
5 | CCOc1nc2cccc(C(=O)O)c2n1Cc1ccc(-c2ccccc2-c2nnn[nH]2)cc1 [Candasartan, 2-ethoxy-1-[[2′-(1H-tetrazol-5-yl)[1,1′-biphenyl]-4-yl]methyl]-1H-benzimidazole-7-carboxylic acid] | offset | – | 0.008 mg/kg | decline in MBP at the next higher dose (rats [2]; 300 mg/kg i.v. (so in the source)): no further decline
6 | CCCc1nc2c(C)cc(-c3nc4ccccc4n3C)cc2n1Cc1ccc(-c2ccccc2C(=O)O)cc1 [Telmisartan, 4′-[(1,4′-dimethyl-2′-propyl[2,6′-bi-1H-benzimidazol]-1′-yl)methyl]-[1,1′-biphenyl]-2-carboxylic acid] | offset | – | – | –
7 | CCCCC1=NC2(CCCC2)C(=O)N1Cc1ccc(-c2ccccc2-c2nnn[nH]2)cc1 [Irbesartan, 2-butyl-3-[[2′-(1H-tetrazol-5-yl)[1,1′-bephenyl]-4-yl]methyl]-1,3-diazaspiro[4,4]non-1-en-4-one] | – | 23% | – | –
